Test results: patent US9610249B2, “Dosage and administration for preventing cardiotoxicity in treatment with ERbB2-targeted immunoliposomes comprising anthracycline chemotherapeutic agents” (MERRIMACK PHARMACEUTICALS, INC., priority 2010, dated 2017)

How the values were obtained:
BT474-M3 cells = assay: Binding and internalization into HER2 over-expressing tumor cells (total and nuclear doxorubicin); format: cell-based, human; conditions: BT474-M3 (1.7×10^6 HER2/cell), 15 μg/ml, up to 3 h
ESCd cardiomyocytes = assay: Uptake of liposomes in cardiomyocytes (HPLC); format: cell-based, human; conditions: ESCd cardiomyocytes (approximately 70,000 HER2 receptors per cell), 15.0 μg/ml dox equiv.
Experimental: (§1) iPSd cardiomyocytes are plated per the manufacturer's instructions (Cell Dynamics International Cat #CMC-100-110-001) in a 24-well tissue culture plate at 250,000 cells/well. Two days later, the 0.5 ml of media in the wells is removed and replaced with 0.5 ml of 15.0 μg/ml (dox equiv.) of MM-302, PLD or free doxorubicin. The plates are swirled in a “figure 8 fashion” 20 times to maximize exposure of the cells to the liposomes. Cells are incubated with MM-302, PLD or free doxorubicin for the indicated time period after which the media are removed and the cells are washed once with 0.5 ml of PBS. The PBS is removed and 0.5 ml of 0.05% trypsin is added to each well. The cells are monitored, and once detachment begins, 0.5 ml of medium containing FBS is added to each well to inactivate the trypsin. The cells are collected and placed in microcentrifuge tubes. The cells are spun at 1,500 rpm for 5 minutes at 4° C. […] Samples are run on the HPLC machine and concentration per sample is determined by relating values to a doxorubicin standard curve.
(§2) To determine if the level of HER2 expression on cardiomyocytes is sufficient to induce uptake of MM-302, total cellular doxorubicin was quantified by HPLC following treatment of ESCd (FIG. 4A) and iPSd (FIG. 4B) cardiomyocytes.

iPSd cardiomyocytes [1] = assay: Uptake of liposomes in cardiomyocytes (HPLC); format: cell-based, human; conditions: iPSd cardiomyocytes (approximately 200,000 HER2 receptors per cell), 15.0 μg/ml dox equiv.
Experimental: as §1, §2

iPSd cardiomyocytes [2] = format: cell-based, human
Text: Exposure to low levels of doxorubicin can be cytotoxic.

gamma-H2AX = format: cell-based, human
Experimental: (§3) Cardiomyocytes are treated as described above. Cells are fixed using 3.7% formaldehyde, washed twice with PBS containing 0.1% Tween-20 (PBS-T), and permeabilized with methanol. Cells are blocked using a 1:1 mixture of LI-COR® Odyssey® Blocking Buffer (Lincoln, Nebr.) and PBS-T for 1 h at room temperature (RT). Cells are stained with a 1:400 dilution of the indicated primary antibody from Cell Signaling Technology (Beverly, Mass.) and incubated shaking at 4° C. overnight. Cells are washed and incubated with a 1:2,000 dilution of the fluorescently labeled secondary antibody for 1 h at RT. Cells are stained with a 1:10,000 dilution of Hoechst 33342 and 1:1,000 dilution of Whole Cell Stain from Pierce Protein Research Products (Rockford, Ill.) for 30 min at RT to allow visualization of DNA and the whole cell, respectively. Plates are scanned using the Applied Precision Instruments ArrayWorx® High Content Scanner (Issaquah, Wash.) with a 10× objective for Hoechst 33342/Whole Cell Stain (460 nm), doxorubicin (595 nm), and APC/DiI5 (657 nm). Images are analyzed using the software ImageRail (as described in Millard et al., Nat Methods. 2011; 8:487-92). An intensity threshold is established for nuclear and whole cell signals. This threshold is then applied to all images and used to segment individual cells. […]

phospho-p53 = assay: High-content analysis of cell stress in cardiomyocytes; format: cell-based, human; conditions: ESCd cardiomyocytes, 3 h treatment, 24 h fresh media
Experimental: as §3

phospho-HSP27 = format: cell-based
Experimental: as §3

cleaved PARP (cPARP) = format: cell-based
Experimental: as §3

[3] = Biodistribution of doxorubicin in heart tissue of NCI-N87 tumor bearing mice (HPLC); conditions: 3 mg/kg dox equiv. i.v.
Experimental: 5-7-week-old female nude mice are purchased from Charles River Laboratories or Taconic Farms, Inc (NCr nude mice). Unless otherwise indicated, mice are inoculated with BT474-M3 breast cancer cells or NCI-N87 gastric cancer cells (NCI-DTP, 10×10^6 cells in 100 μl RPMI) into the right dorsal flank of the mice (subcutaneous injection, s.c.). When the tumors reach an average volume of ˜200 mm^3, studies are performed as described below.
(§4) Mice are randomized into 4 groups that received a single intravenous (i.v.) dose of either PBS, doxorubicin, MM-302-DiI5 or PLD-DiI5 (all at 3 mg/kg), respectively. Mice (n=4/time point/group) are sacrificed at 0.5, 4, 24 and 96 h (doxorubicin) or 168 h (MM-302-DiI5 and PLD-DiI5) after the single dose. Five minutes before sacrificing, mice are injected i.v. with 100 μl of FITC-lectin, to label the vasculature.
Heart tissues are weighed and disaggregated with 1 mL H2O using a TissueLyser™ (Qiagen) for 3 min. 100 μl of the homogenate is then transferred into a new tube and 900 μl of 1% acetic acid/methanol is added. For the cultured cells, cells are treated with drug, as described above, trypsinized and lysed using 1.0% acetic acid in methanol. Lysates are vortexed for 10 sec. and placed at −80° C. for 1 h. Samples are spun at room temperature (RT) for 10 min at 10,000 RPM. Supernatants and doxorubicin standards are analyzed by HPLC (Dionex) using a C18 reverse phase column (Synergi™ POLAR-RP® 80 Å, 250×4.60 mm 4 μm column). Doxorubicin is eluted running a gradient from 30% acetonitrile; 70% 0.1% trifluoroacetic acid (TFA)/H2O to 55% acetonitrile; 45% 0.1% TFA/H2O during a 7 min span at a flow rate of 1.0 ml/min. The doxorubicin peak is detected at 6.5 min using an in-line fluorescence detector excited at 485 nm, and emitting at 590 nm.
The macro-level biodistributions of MM-302 (square), PLD (UT-PLD, triangle) and doxorubicin (free dox, circle) were compared in mouse heart tissue (FIG. 7A), human xenograft tumor tissue (FIG. 7B) and paw tissue (FIG. 7C) in NCI-N87 tumor bearing mice inoculated as described above. Mice (n=4/time point/group) were injected i.v. with MM-302, PLD, or free doxorubicin (all at 3 mg/kg dox equiv.) and hearts were collected at 0.5, 4, 24, and 96 h (for dox) or 168 h (for MM-302 and PLD) post injection and doxorubicin quantified by HPLC (FIG. 7A).

[4] = Nuclear doxorubicin in heart sections (confocal microscopy and image analysis); conditions: 3 mg/kg dox equiv. i.v.
Experimental: as §4

[5] = tested on: Troponin I (iPSd cardiomyocytes)
Experimental: 15,000 iPSd (iCELL®) cardiomyocytes (Cellular Dynamics International, Madison Wis.) cells are plated per the manufacturer's protocol. […] The supernatant is collected and analyzed using a human Troponin I ELISA (Catalog #: GWB-83A61F, Genway Biotech, San Diego Calif.) per the manufacturer's protocol. A PrestoBlue® Cell Viability Assay (Catalog #: A-13261, Invitrogen, Grand Island, N.Y.) is performed on the remaining cells in 100 μl per the manufacturer's protocol.

[6] = patients; cited from earlier work
phospho-AKT (pAKT) = assay: Signaling in iPS-derived cardiomyocytes; format: cell-based, human; conditions: 24 hours pretreatment
Experimental: (§5) Cells are stained and imaged using high content microscopy as described above for (A) pAKT and (B) pERK following a10 minute stimulation with 10 nM and 5 nM of heregulin, respectively. The following primary antibodies are used at a 1:400 dilution in blocking buffer: pERK antibody—Cell Signaling Technology (CST—Danvers Mass.)—Catalog 9106L (Phospho-p44/42 MAPK (Erk1/2) (Thr202/Tyr204) (E10) Mouse mAb #9106); pAKT antibody—CST—Catalog 4060L (Phospho-Akt (Ser473) (D9E) XP™ Rabbit mAb #4060). Secondary antibodies are Anti-mouse IgG (H+L), F(ab′)2 Fragment (Alexa Fluor® 647 Conjugate)—CST—Catalog 4410; Anti-rabbit IgG (H+L), F(ab′)2 Fragment (Alexa Fluor® 647 Conjugate)—CST—Catalog 4414. Whole cell stain and DNA stain (Hoechst 33342) are used as described above. Images are analyzed and individual cells are segmented on the basis of Hoechst 33342 nuclear staining. Single cell signal intensity for each stain is quantified and represented as the mean relative intensity of individual cells.
(§6) After stimulation with 10 nM (FIG. 6A) and 5 nM (FIG. 6B) of heregulin (HRG) for 10 min, the levels of phospho-AKT (pAKT, FIG. 6A) and phospho-ERK (pERK, FIG. 6B) were measured by high content microscopy as described above.

phospho-ERK (pERK) = assay: Signaling in iPS-derived cardiomyocytes; format: cell-based, human; conditions: 24 hours pretreatment
Experimental: as §5, §6

For `COc1cccc2c1C(=O)c1c(O)c3c(c(O)c1C2=O)C[C@@](O)(C(=O)CO)C[C@@H]3O[C@H]1C[C@H](N)[C@H](O)[C@H](C)O1` [doxorubicin, Doxorubicin], which “total cell binding and nuclear doxorubicin accumulation” value (BT474-M3 cells) is on record?
The value was “freely enter cells and accumulate in the nucleus”.

What about the “total cellular doxorubicin (uptake)” value (ESCd cardiomyocytes) of the same compound?
The value was “doxorubicin accumulation in all cells”.

And the “total cellular doxorubicin (uptake)” value (iPSd cardiomyocytes [1])?
Its value is “doxorubicin accumulation in all cells”.

What about the “effect on cardiomyocyte viability” value (iPSd cardiomyocytes [2]) of the same compound?
Its value is “marked decrease in viability”.

What about the “nuclear gamma-H2AX” value (gamma-H2AX) of the same compound?
Its value is “dose-dependent increase in nuclear gamma-H2AX”.

What about the phospho-p53 (phospho-p53) of the same compound?
Its phospho-p53 is “dose-dependent increase”.

What about the phospho-HSP27 (phospho-HSP27) of the same compound?
The phospho-HSP27 was “dose-dependent increase”.

And the “nuclear cleaved PARP (cPARP) at 5.0 μg/ml” value (cleaved PARP (cPARP))?
Its value is “increase in nuclear cleaved PARP”.

What about the “clearance of doxorubicin from the heart tissue” value [3] of the same compound?
Its value is “faster compared to MM-302 and PLD”.

And the “time of peak doxorubicin exposure in the heart” value [3]?
The value was 0.5 h.

And the “doxorubicin in the heart at 0.5 h” value ([3]; 0.5 h post injection)?
Its value is 10 % of injected dose (i.d.)/g tissue.

What about the “doxorubicin in the heart at 24 h” value ([3]; 24 h post injection) of the same compound?
The value was 0.77 % of i.d./g tissue.

And the “nuclei positive for doxorubicin in heart tissue at 0.5 h” value ([4]; 0.5 h)?
The value was “about 50%”.

And the “nuclei positive for doxorubicin in heart tissue at 4 h” value ([4]; 4 h)?
The value was 23%.

And the “nuclei positive for doxorubicin in heart tissue at 24 h” value ([4]; 24 h)?
Its value is “returned to basal levels”.

And the “Troponin I in supernatant” value [5]?
Its value is “marked increase of Troponin I”.

What about the “cumulative doxorubicin exposure that increases the potential for cardiomyopathy and heart failure” value [6] of the same compound?
The value was “above 550 mg/m^2”.

With `CS(=O)(=O)CCNCc1ccc(-c2ccc3ncnc(Nc4ccc(OCc5cccc(F)c5)c(Cl)c4)c3c2)o1` [lapatinib] as the compound, how does the “basal phosphorylation of AKT” value (phospho-AKT (pAKT); no heregulin) read?
The value was “reduction in basal phosphorylation”.

And the “heregulin (HRG)-induced phosphorylation of AKT” value (phospho-AKT (pAKT); 10 nM heregulin, 10 min)?
The value was “complete inhibition of HRG-induced phosphorylation”.

And the “basal phosphorylation of ERK” value (phospho-ERK (pERK); no heregulin)?
Its value is “reduction in basal phosphorylation”.

What about the “heregulin (HRG)-induced phosphorylation of ERK” value (phospho-ERK (pERK); 5 nM heregulin, 10 min) of the same compound?
Its value is “complete inhibition of HRG-induced phosphorylation”.
